Assay results published in US6576671B1, “Aminotetralin derivatives for the therapy of cardiovascular diseases” (Chiese Farmaceutici S.p.A., priority 1999, dated 2003).
pIC50: −log10 of the molar value.

Biological target: T1, α2 adrenergic receptors (Homo sapiens, UniProt P08913)
T1 construct: from tissue; host or cells: human platelets
T1 sequence (P08913 1-465): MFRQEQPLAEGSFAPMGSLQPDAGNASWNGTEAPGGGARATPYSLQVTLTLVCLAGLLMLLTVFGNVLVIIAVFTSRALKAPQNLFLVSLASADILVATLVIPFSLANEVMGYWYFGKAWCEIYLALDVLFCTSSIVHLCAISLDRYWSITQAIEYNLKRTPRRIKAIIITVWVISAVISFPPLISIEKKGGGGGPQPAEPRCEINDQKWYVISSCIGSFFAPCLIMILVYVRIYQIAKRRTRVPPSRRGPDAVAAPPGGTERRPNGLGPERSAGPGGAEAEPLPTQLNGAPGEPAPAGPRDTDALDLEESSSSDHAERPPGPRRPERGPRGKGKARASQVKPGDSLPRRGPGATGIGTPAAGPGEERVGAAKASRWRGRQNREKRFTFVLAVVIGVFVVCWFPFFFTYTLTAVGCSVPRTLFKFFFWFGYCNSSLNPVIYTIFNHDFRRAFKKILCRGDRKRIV
Assay: α2 adrenergic receptor binding, [3H]-rauwolscine, human platelets
Conditions: human platelets; read-out: IC50, 50% inhibition of [3H]-rauwolscine specific binding
Excerpt: The antagonist [^3H]-rauwolscine was used as marker of the receptor, being its binding reversible, saturable and specific.

How did the pIC50 turn out when `CNC1CCc2c(ccc(OC(=O)C(C)C)c2OC(=O)C(C)C)C1` (stereo not shown) [CHF 1035, 5,6-Diisobutyroyloxy-2-methylaminotetralin] was run?
Its pIC50 is 4.57.
